In patent publication EP4721767A1 (priority 2023, dated 2024):
Several values for one entry are separate records, joined by “and”; a condition that tells them apart may be missing. Equal entries are not always repeated.

T1: human B7-H3 naturally expressed on the surface of SKOV3 cells (human, UniProt Q5ZPR3 29-534)
T1 construct: whole, on cells; also called surface antigen of SKOV3 cells; B7-H3 on the surface of SKOV3 cells
T1 sequence (looked up): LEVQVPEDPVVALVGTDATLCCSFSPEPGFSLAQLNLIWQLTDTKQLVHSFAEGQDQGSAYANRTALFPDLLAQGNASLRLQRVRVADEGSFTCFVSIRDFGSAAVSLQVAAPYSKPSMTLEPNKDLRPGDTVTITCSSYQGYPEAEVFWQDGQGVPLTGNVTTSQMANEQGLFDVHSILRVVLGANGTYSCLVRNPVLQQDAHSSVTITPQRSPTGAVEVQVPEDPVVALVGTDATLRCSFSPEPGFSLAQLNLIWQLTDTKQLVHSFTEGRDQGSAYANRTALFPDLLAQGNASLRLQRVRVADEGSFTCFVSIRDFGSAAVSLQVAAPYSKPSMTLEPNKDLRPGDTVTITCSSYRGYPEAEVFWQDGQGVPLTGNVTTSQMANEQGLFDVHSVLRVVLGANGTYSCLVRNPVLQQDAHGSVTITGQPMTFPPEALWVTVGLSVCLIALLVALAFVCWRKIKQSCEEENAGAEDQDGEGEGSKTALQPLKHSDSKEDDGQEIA

T2: Recombinant human B7-H3 extracellular domain protein (UniProtKB-Q5ZPR3, amino acids 1-461, C-His tag) (human, UniProt Q5ZPR3 29-461)
T2 construct: range 1-461; The printed range 1-461 starts at residue 1 and so covers the signal peptide; also called human B7-H3 ECD-His; recombinant human B7-H3 ECD protein; not shown: C-terminal His tag
T2 sequence (looked up): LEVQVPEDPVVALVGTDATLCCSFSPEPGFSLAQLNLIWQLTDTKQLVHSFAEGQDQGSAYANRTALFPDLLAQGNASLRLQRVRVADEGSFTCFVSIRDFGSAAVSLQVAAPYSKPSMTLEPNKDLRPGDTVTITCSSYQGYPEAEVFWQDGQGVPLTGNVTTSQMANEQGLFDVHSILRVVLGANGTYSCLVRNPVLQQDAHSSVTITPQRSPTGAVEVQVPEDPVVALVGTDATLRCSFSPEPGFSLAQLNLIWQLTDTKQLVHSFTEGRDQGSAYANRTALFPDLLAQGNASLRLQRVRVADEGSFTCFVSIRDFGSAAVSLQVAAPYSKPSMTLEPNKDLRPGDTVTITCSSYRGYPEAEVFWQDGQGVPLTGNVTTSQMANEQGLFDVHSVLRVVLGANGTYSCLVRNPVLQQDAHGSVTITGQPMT


How the values were obtained:
[1] = tested on: HT29 human colon cancer cells; assay: Cell killing activity of camptothecins (CCK-8); type: cell-based; details: HT29, killing 4 days; for EC50: Homo sapiens, HT-29, 96 h
Description: (§1) KB oral epithelial cancer cells (purchased from: ATCC) were cultured in DMEM medium supplemented with 10% FBS; NCI-N87 human gastric cancer cells (purchased from: ATCC) were cultured in RPMI1640 medium supplemented with 10% FBS; HT29 human colon cancer cells (purchased from: ATCC) were cultured in RPMI1640 medium supplemented with 10% FBS; and BxPC-3 human pancreatic adenocarcinoma cells (purchased from: ATCC) were cultured in RPMI1640 medium supplemented with 10% FBS.
(§2) Using corresponding media described above and in cell plates, the density of KB cells was adjusted to 2×10^4/mL; the density of NCI-N87 cells was adjusted to 5×10^4/mL; the density of HT29 cells was adjusted to 5×10^4/mL, and the cells were plated onto 96-well transparent flat bottom plates, at 100 µL/well, and cultured overnight; and the density of BxPC-3 cells was adjusted to 5×10^4/mL.
(§3) Samples to be detected were diluted to 20 µM with corresponding media, then 5-fold gradient dilution was performed, and 9 concentrations were obtained. A well having cells but with no any sample added was set as the well showing maximum cell growth; and a well having no cells was set as the well of medium background. The diluted samples were added into the cell plates, at 100 µL/well, which were then incubated in a CO2 incubator for 96 hours. After the incubation, CCK-8 (purchased from: DOJINDO LABORATORIES) prepared beforehand was added into the plates, at 20 µL/well, and after further 3 hours of incubation in the CO2 incubator, OD values at 450 nm were read on a microplate reader.
(§4) Data obtained was fitted to a four-parameter curve using software Prism7, and equation for calculating maximum killing is: maximum killing (%) = 1 - (OD450 value of the well showing maximum killing - OD450 value of the well of medium background) / (OD450 value of the well showing maximum cell growth - OD450 value of the cell of medium background) × 100%. Table 6. Results of comparative study on the activity of camptothecins

[2] = tested on: KB oral epithelial cancer cells; assay: Cell killing activity of camptothecins (CCK-8); type: cell-based; details: killing 4 days; for EC50: 96 h
Description: as §1, §2, §3, §4

[3] = tested on: NCI-N87 human gastric cancer cells; assay: cells; type: cell-based; details: NCI-N87, killing 4 days; for EC50: Homo sapiens, NCI-N87, 96 h
[4] = tested on: BxPC-3 human pancreatic adenocarcinoma cells; assay: cells; type: cell-based; details: BxPC-3, killing 4 days; for EC50: Homo sapiens, BXPC-3, 96 h
[5] = target: T1, human B7-H3 naturally expressed on the …; assay: flow cytometry (MFI) on SKOV3 cells naturally expressing human B7-H3
[6] = target: T2, Recombinant human B7-H3 extracellular …; assay: BLI (ForteBio Octet QKe), antibody on AHC probes, 60 nM antigen, 1:1 Langmuir fit

EC50 [5] [nM] | Kd [6] [nM] | koff [6] [s⁻¹] | kon [6] [M⁻¹ s⁻¹] | Molecule | EC50 [3] [nM] | EC50 [4] [nM] | other results
– | – | – | – | CC[C@@]1(O)C(=O)OCc2c1cc1n(c2=O)Cc2c-1nc1ccc(N)c3c1c2C(C)(C)CC3 [Compound 1] | 21.9 | – | Maximum Killing (%) [1]: 91.9%; EC50 [1]: 43.4 nM; EC50 [2]: 52.3 nM; Maximum Killing (%) [2]: 97.6%
– | – | – | – | CC[C@@]1(O)C(=O)OCc2c1cc1n(c2=O)Cc2c-1nc1ccc(N)c3c1c2C1CC1C3 (stereo partly drawn) [Compound 7] | 3.31 | 11.4 | –
– | – | – | – | CC[C@@]1(O)C(=O)OCc2c1cc1n(c2=O)Cc2c-1nc1ccc(N)c3c1c2CCS3 [Compound 12] | 8.43 | 2.15 | –
– | – | – | – | CC[C@@]1(O)C(=O)OCc2c1cc1n(c2=O)Cc2c-1nc1ccc(N)c3c1c2CC[S@+]3[O-] [Compound 14-P1] | 503 | – | –
– | – | – | – | CC[C@@]1(O)C(=O)OCc2c1cc1n(c2=O)Cc2c-1nc1ccc(N)c3c1c2CC[S@@+]3[O-] [Compound 14-P2] | 2000 | – | –
– | – | – | – | CC[C@@]1(O)C(=O)OCc2c1cc1n(c2=O)Cc2c-1nc1ccc(N)c3c1c2CCS3(=O)=O [Compound 15] | 178 | 79.6 | –
– | – | – | – | CC[C@@]1(O)C(=O)OCc2c1cc1n(c2=O)Cc2c-1nc1cc(F)c(N)c3c1c2CCO3 [Compound 18] | 1.57 | 1.45 | –
– | – | – | – | CC[C@@]1(O)C(=O)OCc2c1cc1n(c2=O)Cc2c-1nc1cc(F)c(N)c3c1c2C(F)(F)CO3 [Compound 19] | 0.864 | 1.4 | Maximum Killing (%) [3]: 93.5%
– | – | – | – | CC[C@@]1(O)C(=O)OCc2c1cc1n(c2=O)Cc2c-1nc1cc(F)c(N)c3c1c2CCS3 [Compound 26] | 1.02 | 1.11 | –
– | – | – | – | CC[C@@]1(O)C(=O)OCc2c1cc1n(c2=O)Cc2c-1nc1cc(F)c(N)c3c1c2C(F)(F)CS3 [Compound 27] | 1.75 | 1.52 | –
– | – | – | – | CC[C@@]1(O)C(=O)OCc2c1cc1n(c2=O)Cc2c-1nc1ccc(N)c3c1c2C(F)(F)CO3 [Compound 31] | 8.59 | 4.42 | –
– | – | – | – | CC[C@@]1(O)C(=O)OCc2c1cc1n(c2=O)Cc2c-1nc1cc(F)c(C)c3c1c2[C@@H](NC(=O)CO)CC3 [Dxd, reference compound] | – | 33.7 | Maximum Killing (%) [4]: 93.1%; EC50 [1]: 133 nM; EC50 [2]: 138 nM; Maximum Killing (%) [3]: 93.3%
– | – | – | – | CC[C@@]1(O)C(=O)OCc2c1cc1n(c2=O)Cc2c-1nc1ccc(N)c3c1c2CCC3 [MWC-1, reference compound] | – | – | Maximum Killing (%) [1]: 89% and 89.9%; EC50 [2]: 15.7 nM; Maximum Killing (%) [2]: 98.6%; Maximum Killing (%) [3]: 93.3%
1.58 | 0.216 | 0.000143 | 665000 | hz10B4 (antibody, V domains shown, Humanized anti-B7-H3 antibody prepared by the method of CN114573695A; also called parent hz10B4; hz10B4-VH×hz10B4-VL) VH: EVQLVQSGAEVKKPGASVKVSCKASGYTFTEYIMHWVRQAPGQGLEWMGGINPASGGTTYNQKFKGRVTMTRDTSISTAYMELSRLRSEDTAVYYCARKGKDYFDWYFDVWGQGTTVTVSS VL: DIQLTQSPSSLSASVGDRVTMTCSASSSVSYMHWYQQKPGKAPKLLIYDTSKLASGVPSRFSGSGSGTDFTLTISSLQPEDFATYYCQQWSSNPLTFGGGTKVEIK | – | – | –
1.89 | 0.352 | 0.000225 | 639000 | hz10B4m1 (antibody, V domains shown, LCDR3 variant of hz10B4 (SSN→SSA); also called hz10B4-VH×hz10B4-Lm1-VL) VH: EVQLVQSGAEVKKPGASVKVSCKASGYTFTEYIMHWVRQAPGQGLEWMGGINPASGGTTYNQKFKGRVTMTRDTSISTAYMELSRLRSEDTAVYYCARKGKDYFDWYFDVWGQGTTVTVSS VL: DIQLTQSPSSLSASVGDRVTMTCSASSSVSYMHWYQQKPGKAPKLLIYDTSKLASGVPSRFSGSGSGTDFTLTISSLQPEDFATYYCQQWSSAPLTFGGGTKVEIK | – | – | –
16.9 | 0.831 | 0.00042 | 505000 | hz10B4m4 (antibody, V domains shown, LCDR3 variant of hz10B4 (SSN→SSG); also called hz10B4-VH×hz10B4-Lm4-VL) VH: EVQLVQSGAEVKKPGASVKVSCKASGYTFTEYIMHWVRQAPGQGLEWMGGINPASGGTTYNQKFKGRVTMTRDTSISTAYMELSRLRSEDTAVYYCARKGKDYFDWYFDVWGQGTTVTVSS VL: DIQLTQSPSSLSASVGDRVTMTCSASSSVSYMHWYQQKPGKAPKLLIYDTSKLASGVPSRFSGSGSGTDFTLTISSLQPEDFATYYCQQWSSGPLTFGGGTKVEIK | – | – | –
1.45 | 0.381 | 0.000287 | 755000 | hz10B4m2 (antibody, V domains shown, LCDR3 variant of hz10B4 (SSN→SAS); also called hz10B4-VH×hz10B4-Lm2-VL) VH: EVQLVQSGAEVKKPGASVKVSCKASGYTFTEYIMHWVRQAPGQGLEWMGGINPASGGTTYNQKFKGRVTMTRDTSISTAYMELSRLRSEDTAVYYCARKGKDYFDWYFDVWGQGTTVTVSS VL: DIQLTQSPSSLSASVGDRVTMTCSASSSVSYMHWYQQKPGKAPKLLIYDTSKLASGVPSRFSGSGSGTDFTLTISSLQPEDFATYYCQQWSASPLTFGGGTKVEIK | – | – | –
2.25 | 0.568 | 0.000336 | 592000 | hz10B4m5 (antibody, V domains shown, LCDR3 variant of hz10B4 (SSN→SGS); also called hz10B4-VH×hz10B4-Lm5-VL) VH: EVQLVQSGAEVKKPGASVKVSCKASGYTFTEYIMHWVRQAPGQGLEWMGGINPASGGTTYNQKFKGRVTMTRDTSISTAYMELSRLRSEDTAVYYCARKGKDYFDWYFDVWGQGTTVTVSS VL: DIQLTQSPSSLSASVGDRVTMTCSASSSVSYMHWYQQKPGKAPKLLIYDTSKLASGVPSRFSGSGSGTDFTLTISSLQPEDFATYYCQQWSGSPLTFGGGTKVEIK | – | – | –
1.59 | 0.422 | 0.000281 | 666000 | hz10B4m3 (antibody, V domains shown, LCDR3 variant of hz10B4 (SSN→SSQ); also called hz10B4-VH×hz10B4-Lm3-VL) VH: EVQLVQSGAEVKKPGASVKVSCKASGYTFTEYIMHWVRQAPGQGLEWMGGINPASGGTTYNQKFKGRVTMTRDTSISTAYMELSRLRSEDTAVYYCARKGKDYFDWYFDVWGQGTTVTVSS VL: DIQLTQSPSSLSASVGDRVTMTCSASSSVSYMHWYQQKPGKAPKLLIYDTSKLASGVPSRFSGSGSGTDFTLTISSLQPEDFATYYCQQWSSQPLTFGGGTKVEIK | – | – | –
